From patent US20030232400A1, “Methods of screening subjects for expression of soluble receptors of vascular endothelial growth factor (VEGF) for use in managing treatment and determining prognostic outcome” (priority 2002, published 2003)
Entries after “also recorded” stand apart in the source; their conditions may differ.

Experiments:
LLC-HM primary tumor = LLC-HM primary tumor model, preclinical studies in mice; type: in vivo
[1] = test system: HEY ovarian, SK-MEL-1 melanoma and ACHN renal carcinoma cell lines; assay: Murine dermis model, peritumoral vessels; type: in vivo
[2] = test system: human KM12 colorectal cancer xenograft; assay: Human KM12 colorectal cancer xenograft, metastasis; type: in vivo, mice
Excerpt: (§1) A reduction of metastasis in a human KM12 colorectal cancer xenograft and reduced metastasis and increase in survival in the murine mammary (4T1) model were also observed with ANGIOZYME treatment.

[3] = test system: murine mammary (4T1) model; assay: Murine mammary (4T1) model; type: in vivo
Excerpt: as §1

[4] = Preclinical absorption after subcutaneous administration; type: in vivo; settings: subcutaneous (SC) administration
Excerpt: as §1

[5] = 13-week toxicology studies; type: in vivo; settings: doses up to 300 mg/m^2/d
[6] = Phase I clinical trials, tolerability; type: in vivo, human; settings: doses up to 300 mg/m^2 administered IV or SC
[7] = test system: late-stage metastatic breast cancer; assay: Phase II monotherapy trial RPI0001, tumor response; type: in vivo, human
Description: (§2) In a Phase II monotherapy ANGIOZYME trial, 45 late-stage metastatic breast cancer patients who had failed multiple prior treatments received 100 mg/m^2 ANGIOZYME by daily SC injection. Due of the critical nature of the disease, most progressed and discontinued drug at the first evaluation (week 6). […] Clinical and biomarker results are summarized.
(§3) In RPI0001, ANGIOZYME monotherapy decreased sVEGFR-1 levels in the metastatic breast cancer setting, although there were no responses in this late-stage disease population.

sVEGFR-1 = assay: Phase II monotherapy trial RPI0001, sVEGFR-1 level; type: in vivo, human; settings: monotherapy 100 mg/m^2 daily SC, metastatic breast cancer patients, by week 6
Description: as §2, §3

[8] = Phase II study RPI0003 (IFL + ANGIOZYME), adverse events; type: in vivo, human
Description: Beginning on study day 4, patients received daily doses of 100 mg/m^2 ANGIOZYME by subcutaneous injection. Unidimensional tumor measurements were obtained from CT scans after 12 and 24 weeks of treatment. Responses were then confirmed 4 weeks following initial response. ANGIOZYME treatment continued until disease progression.
Adverse event reporting for RPI0003 is ongoing for the 6 patients continuing to receive ANGIOZYME in the maintenance protocolis. […] One patient has discontinued RPI0003 due to an ISR.
Of the MedDRA organ system classes most likely to be affected by antiangiogenic drugs, only the vascular complications (DVT/PE) may appear in excess in this study. […] This observation was communicated to the FDA in September, 2002. Patients continue in the maintenance trial with all PEs and DVTs being classified as serious and ANGIOZYME-related to ensure complete reporting of these events.

[9] = test system: metastatic colorectal cancer; settings: cited from earlier work

ANGIOZYME: stabilized ribozyme that targets the pre-mRNA of vascular endothelial growth factor receptor-1 (VEGFR-1); structure in FIG. 8 (GAGUUGCUGAUGAGGCCGAAAGGCCGAAAGUCUG; stabilized ribozyme, chemical modifications not given here)
growth of the LLC-HM primary tumor (LLC-HM primary tumor): inhibited the growth of the LLC-HM primary tumor in a dose-dependent manner | mean vascular density in tumor sections (LLC-HM primary tumor; LLC-HM model): decreased | number of lung metastases (LLC-HM primary tumor; LLC-HM model): reduced | interaction with interferon treatment [1]: synergistic | number of peritumoral vessels ([1]; HEY, SK-MEL-1, ACHN cell lines): reduced | metastasis [2]: reduction | metastasis [3]: reduced | survival [3]: increase | absorption [4]: well absorbed | tolerability [5]: well tolerated | tolerability [6]: well tolerated | tumor responses [7]: no responses | change in sVEGFR-1 (sVEGFR-1): significant decrease; also recorded: decreased | patients discontinued due to an injection site reaction (ISR) ([8]; RPI0003): One | tolerability ([8]; RPI0003, daily SC injection in combination with IFL): well tolerated | toxicity added to the chemotherapy ([8]; RPI0003, with the possible exception of increased vascular complications): added no toxicity | most frequent adverse experiences ([8]; RPI0003 and all other ANGIOZYME studies): injection site reactions

irinotecan/5-fluorouracil/leucovorin [IFL]
response rate ([9]; IFL alone, patients who received IFL, good performance status, CT at 12 or 24 weeks): ~40% | Median time to progression (TTP) ([9]; IFL arm of the Pharmacia study): > 7.0 months | At least Stable at Week 12 ([9]; N = 192, Pharmacia 0038): 83% | At least Stable at Week 24 ([9]; N = 192, Pharmacia 0038): 80% | Best Overall Response (Week 24) ([9]; N = 192, Pharmacia 0038): 37% | Best Overall Response, Confirmed at Week 12 ([9]; N = 192, Pharmacia 0038): 35% | Best Overall Response, Unconfirmed at Week 12 ([9]; N = 192, Pharmacia 0038): 48% | Discontinued by Week 12 Due to Disease Progression ([9]; N = 192, Pharmacia 0038): 12%
